Experimental data published in patent US5552552A, “Crystalline salts of optically active aminocoumaran derivatives, their production and use” (Takeda Chemical Industries, Ltd., priority 1992, dated 1996).
Structures can show the parent of a compound that is named as a salt.

Legend:
[1] = test system: behavioral change induced by spinal intrathecal injection of FeCl2 (ferrous chloride); assay: Change of behavior induced by spinal intrathecal injection of FeCl2 in mice; format: in vivo, male Slc:ICR mice (printed "SIc: IcR mice"); conditions: 25 mg/kg oral; for Mean Score, 25 mg/kg Administered: behavior observed 15 min to 1 h after intrathecal 50 mM FeCl2, 5 μl/mouse, 10 mice per group, score 0 (normal) to 5 (death); for Percent Suppression (%): calculated from the mean behavioral scores, FeCl2 intrathecal, mice
From the text: Effect on drugs on the change of behavior induced by spinal in intrathecal injection of FeCl2 in mice.
Male SIc: IcR mice (5 weeks) (10 mice per group) were used. […] The following criteria were used to score behavioral changes.
1: Frequent bites to lower limbs and lower abdomen.
2: One of the following three responses is seen: a) Violent bites to lower half of body, with occasionally rolling b) Hypersensitive aggressive behavior in response to external stimulation […]
4: Tonic convulsion, or unilateral or bilateral limb paralysis […]
Percent inhibitions were calculated from the scores obtained as above (percent inhibition=[(5-score)/5]×100). The subject compound salt was orally administered during the 30-minute period following administration of ferrous chloride.

[2] = Stability / hygroscopicity (no method); format: physicochemical; conditions: in words; derivative (B), racemate; no data
[3] = in words; free form (racemate), as described in EP-A-0483772; cited from earlier work

Cc1c(C)c2c(c(C)c1N)C[C@](C)(CN1CCC(c3ccccc3)CC1)O2 [Example 4, (R)--(-)-5-amino-2,4,6,7-tetramethyl-2-(4-phenylpiperidinomethyl)-2,3-dihydrobenzo [b]furan dihydrochloride]
Mean Score, 25 mg/kg Administered [1]: 1.3 | Percent Suppression (%) [1]: 72.3%

Cc1c(C)c2c(c(C)c1N)CC(C)(CN1CCC(c3ccccc3)CC1)O2 (racemic) [Derivative (B), 5-amino-2,4,6,7-tetramethyl-2-(4-phenylpiperidinomethyl)-2,3-dihydrobenzo[b]furan]
hygroscopicity and stability [2]: hygroscopic and hence unstable | water solubility of the free form [3]: sparingly water-soluble

Cc1c(C)c2c(c(C)c1N)C[C@@](C)(CN1CCC(c3ccccc3)CC1)O2 [Example 3, (S)--(+)-5-amino-2,4,6,7-tetramethyl-2-(4-phenylpiperidinomethyl)-2,3-dihydrobenzo [b]furan dihydrochloride]
Mean Score, 25 mg/kg Administered [1]: 0.2 | Percent Suppression (%) [1]: 96%
